The text below walks through data of PubChem BioAssay AID330 (DTP/NCI, 2004).

The assay deals with P388 leukemia ip, CD2F1 mice, survival T/C. In words: NCI In Vivo Anticancer Drug Screen. Data for tumor model P388 Leukemia (intraperitoneal) in CD2F1 (CDF1) mice. The note with it: endpoint: median survival time, higher = longer survival. Put shortly: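 Mice carrying the transplanted tumor received test compound or vehicle. Survival was recorded in each group, and the value is the treated-group measurement divided by that of the vehicle-treated control group.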

The mark [1] stands for this setting: dose: 100.0 mg/kg/injection, schedule: Q04DX002 (ip), vehicle: Klucel (hydroxypropylcellulose) (HPC).
[2] abbreviates: dose: 200.0 mg/kg/injection, schedule: Q04DX002 (ip), vehicle: Klucel (hydroxypropylcellulose) (HPC).
The mark [3] stands for this setting: dose: 60.0 mg/kg/injection, schedule: Q01DX005 (ip), vehicle: saline with Tween-80.
The mark [4] stands for this setting: dose: 50.0 mg/kg/injection, schedule: Q01DX009 (ip), vehicle: Klucel (hydroxypropylcellulose) (HPC).
Where [5] appears, read: dose: 25.0 mg/kg/injection, schedule: Q01DX005 (ip), vehicle: Klucel (hydroxypropylcellulose) (HPC).
Setting [6] is: dose: 50.0 mg/kg/injection, schedule: Q01DX005 (ip), vehicle: Klucel (hydroxypropylcellulose) (HPC).
The mark [7] stands for this setting: dose: 100.0 mg/kg/injection, schedule: Q01DX005 (ip), vehicle: Klucel (hydroxypropylcellulose) (HPC).
Where [8] appears, read: dose: 200.0 mg/kg/injection, schedule: Q01DX005 (ip), vehicle: Klucel (hydroxypropylcellulose) (HPC).
Where [9] appears, read: dose: 100.0 mg/kg/injection, schedule: Q01DX009 (ip), vehicle: Klucel (hydroxypropylcellulose) (HPC).
The mark [10] stands for this setting: dose: 50.0 mg/kg/injection, schedule: Q01DX005 (ip), vehicle: saline with Tween-80.
The mark [11] stands for this setting: dose: 100.0 mg/kg/injection, schedule: Q01DX005 (ip), vehicle: saline with Tween-80.
[12] abbreviates: dose: 200.0 mg/kg/injection, schedule: Q01DX005 (ip), vehicle: saline with Tween-80.
Where [13] appears, read: dose: 25.0 mg/kg/injection, schedule: Q01DX009 (ip), vehicle: saline with Tween-80.
The mark [14] stands for this setting: dose: 50.0 mg/kg/injection, schedule: Q01DX009 (ip), vehicle: saline with Tween-80.
Where [15] appears, read: dose: 100.0 mg/kg/injection, schedule: Q01DX009 (ip), vehicle: saline with Tween-80.

Several values for one entry are separate records, joined by “and”; a condition that tells them apart may be missing. Equal entries are not always repeated. Inconclusive results and toxic doses are left out.

In the case of `O=C1c2ccccc2CC12OC2c1ccncc1` (configuration not stated), the T/C by setting is: under setting [1], 104 % of control; under setting [2], 100 % of control; (dose: 400.0 mg/kg/injection, schedule: Q04DX002 (ip), vehicle: Klucel (hydroxypropylcellulose) (HPC)) 106 % of control.

As for `O=C(N/N=C/c1cc(Br)ccc1[O-])c1ccccc1O.O=C(N/N=C/c1cc(Br)ccc1[O-])c1ccccc1O.[Co+2]`, the T/C runs as follows: under setting [1], 90 % of control; under setting [2], 90 % of control.

As to `Nc1ccc(CCCC(=O)NCc2cccnc2)cc1`, the T/C was 106 % of control under setting [3]; 96 % of control (dose: 120.0 mg/kg/injection, schedule: Q01DX005 (ip), vehicle: saline with Tween-80); 91 % of control (dose: 240.0 mg/kg/injection, schedule: Q01DX005 (ip), vehicle: saline with Tween-80).

For `CC(=O)N(C(C)=O)c1ccc(C)cc1`, the T/C runs as follows: (dose: 12.5 mg/kg/injection, schedule: Q01DX009 (ip), vehicle: Klucel (hydroxypropylcellulose) (HPC)) 94 % of control; (dose: 25.0 mg/kg/injection, schedule: Q01DX009 (ip), vehicle: Klucel (hydroxypropylcellulose) (HPC)) 94 % of control; under setting [4], 100 % of control.

Turning to `COC(C(=O)C(O)C(C)O)C1Cc2cc3cc(OC4CC(OC5CC(O)C(O)C(C)O5)C(O)C(C)O4)c(C)c(O)c3c(O)c2C(=O)C1OC1CC(OC2CC(O)C(OC3CC(C)(O)C(O)C(C)O3)C(C)O2)C(O)C(C)O1` (configuration not stated), the T/C (dose: 0.06 mg/kg/injection, schedule: Q01DX009 (ip), vehicle: saline) is 122 % of control; the T/C (dose: 0.13 mg/kg/injection, schedule: Q01DX001 (ip), vehicle: saline) is 104 % of control; the T/C (dose: 0.13 mg/kg/injection, schedule: Q01DX009 (ip), vehicle: saline) is 106 % of control; the T/C (dose: 0.25 mg/kg/injection, schedule: Q01DX001 (ip), vehicle: saline) was 103 % of control; the T/C (dose: 0.25 mg/kg/injection, schedule: Q01DX009 (ip), vehicle: saline) is 109 % of control; the T/C (dose: 0.5 mg/kg/injection, schedule: Q01DX001 (ip), vehicle: saline) is 109 % of control. In addition, the T/C reads like this: (dose: 0.5 mg/kg/injection, schedule: Q04DX003 (ip), vehicle: saline) 116 % of control; (dose: 2.0 mg/kg/injection, schedule: Q01DX009 (ip), vehicle: saline) 151 % of control.

As to `CC(Cc1nc2ccccc2[nH]1)Cc1nc2ccccc2[nH]1`, the T/C under setting [5] is 100 % of control, the T/C under setting [6] was 99 % of control, the T/C under setting [7] is 92 % of control and the T/C under setting [8] is 91 % of control.

For the compound `O=S(=O)(Nc1cc2ccccc2cc1NS(=O)(=O)N1CCCCC1)N1CCCCC1`, the T/C is, setting by setting: under setting [4], 93 % of control; under setting [9], 89 % of control.

For the compound `CCCCNc1cc(-c2c(N)nc(N)nc2CC)ccc1[N+](=O)[O-]`, the T/C reads like this: under setting [10], 101 % of control; under setting [11], 101 % of control; under setting [12], 94 % of control.

On to `C/C(=N/NC(=O)Cc1ccccc1)C(=NO)/C(C)=N\NC(=O)Cc1ccccc1`, for which the T/C (dose: 100.0 mg/kg/injection, schedule: Q04DX002 (ip), vehicle: saline) is 101 % of control; the T/C (dose: 200.0 mg/kg/injection, schedule: Q04DX002 (ip), vehicle: saline) was 108 % of control; the T/C (dose: 400.0 mg/kg/injection, schedule: Q04DX002 (ip), vehicle: saline) was 116 % of control.

Consider `COC(=O)c1nnn(-c2cc(Cl)ccc2Cl)c1N`, for which the T/C under setting [3] was 91 % of control.

In the case of `Clc1nc[nH]c1Cl`, the T/C was 109 % of control under setting [13], 100 % of control under setting [14] and 98 % of control under setting [15].

On to `FC(F)(F)/C([S-])=C(/[S-])C(F)(F)F.FC(F)(F)/C([S-])=C(/[S-])C(F)(F)F.FC(F)(F)/C([S-])=C(/[S-])C(F)(F)F.FC(F)(F)/C([S-])=C(/[S-])C(F)(F)F.[Co+3].[Co+3]`, for which the T/C by setting is: (dose: 33.0 mg/kg/injection, schedule: Q04DX003 (ip), vehicle: other) 107 % of control; (dose: 50.0 mg/kg/injection, schedule: Q04DX003 (ip), vehicle: other) 100 % of control.

As for `NC(=O)CCBr`, the T/C is 101 % of control under setting [14] and 97 % of control under setting [15].

Regarding `O=C(CCN1C(=O)c2ccccc2C1=O)c1cnc[nH]1`, the T/C was 105 % of control (dose: 17.5 mg/kg/injection, schedule: Q01DX005 (ip), vehicle: Klucel (hydroxypropylcellulose) (HPC)); 90 % of control (dose: 35.0 mg/kg/injection, schedule: Q01DX005 (ip), vehicle: Klucel (hydroxypropylcellulose) (HPC)); 98 % of control (dose: 70.0 mg/kg/injection, schedule: Q01DX005 (ip), vehicle: Klucel (hydroxypropylcellulose) (HPC)).

With `Clc1cccc2nncn12`, the T/C is, setting by setting: (dose: 50.0 mg/kg/injection, schedule: Q01DX001 (ip), vehicle: saline) 98 % of control; (dose: 100.0 mg/kg/injection, schedule: Q01DX001 (ip), vehicle: saline) 102 % of control; (dose: 200.0 mg/kg/injection, schedule: Q01DX001 (ip), vehicle: saline) 100 % of control.

For the compound `CC(C)(C)C(=O)CC(=O)C(C)(C)C.[Cl][Sb]1([Cl])[c]2ccccc2Cc2cccc[c]21`, the T/C is 100 % of control under setting [14]; 108 % of control under setting [15]; 107 % of control (dose: 200.0 mg/kg/injection, schedule: Q01DX009 (ip), vehicle: saline with Tween-80).

For the compound `c1ccc([C@H]2CN3CCSC3=N2)cc1`, the T/C by setting is: (dose: 1.25 mg/kg/injection, schedule: Q01DX009 (ip), vehicle: saline) 101 % of control; (dose: 2.5 mg/kg/injection, schedule: Q01DX009 (ip), vehicle: saline) 97 % of control; (dose: 5.0 mg/kg/injection, schedule: Q01DX009 (ip), vehicle: saline) 101 % of control; (dose: 6.9 mg/kg/injection, schedule: Q01DX005 (ip), vehicle: saline) 98 % of control; (dose: 10.0 mg/kg/injection, schedule: Q01DX009 (ip), vehicle: saline) 99 % of control; (dose: 11.5 mg/kg/injection, schedule: Q01DX001 (ip), vehicle: saline) 100 % of control and 109 % of control. The T/C was 103 % of control (dose: 11.5 mg/kg/injection, schedule: Q01DX005 (ip), vehicle: saline); 99 % of control and 109 % of control (dose: 19.2 mg/kg/injection, schedule: Q01DX001 (ip), vehicle: saline); 105 % of control (dose: 19.2 mg/kg/injection, schedule: Q01DX005 (ip), vehicle: saline); 113 % of control (dose: 20.0 mg/kg/injection, schedule: Q01DX009 (ip), vehicle: saline); 99 % of control (dose: 32.0 mg/kg/injection, schedule: Q01DX001 (ip), vehicle: saline).

As to `COC(=O)Nc1cn2ccc(Sc3ccccc3)cc2n1`, the T/C was 103 % of control and 109 % of control under setting [4]; 105 % of control and 122 % of control under setting [9].

Turning to `COC(=O)N(C)C1=CCC(C(C)(C)C)CC1` (configuration not stated), the T/C is 103 % of control under setting [5], 106 % of control under setting [6], 107 % of control under setting [7] and 105 % of control under setting [8].

As for `CN1CC(C(=O)O)=Nc2c1nc(N)[nH]c2=O`, the T/C is, setting by setting: (dose: 6.25 mg/kg/injection, schedule: Q01DX009 (ip), vehicle: saline with Tween-80) 101 % of control; (dose: 12.5 mg/kg/injection, schedule: Q01DX009 (ip), vehicle: saline with Tween-80) 109 % of control; under setting [13], 101 % of control.

As to `C=CCOc1cc2c(cc1C(C)c1ccc(OC)c(OC)c1)OCO2` (configuration not stated), the T/C is 99 % of control under setting [10], 100 % of control under setting [11] and 95 % of control under setting [12].

Consider `FC(F)(Br)C(F)(Cl)Br` (configuration not stated), for which the T/C is, setting by setting: under setting [10], 101 % of control; under setting [11], 99 % of control; under setting [12], 114 % of control.

For the compound `C1=CCC23COCC2(C1)CSC3` (configuration not stated), the T/C by setting is: (dose: 12.5 mg/kg/injection, schedule: Q01DX009 (ip), vehicle: saline) 96 % of control; (dose: 25.0 mg/kg/injection, schedule: Q01DX009 (ip), vehicle: saline) 92 % of control; (dose: 50.0 mg/kg/injection, schedule: Q01DX009 (ip), vehicle: saline) 99 % of control.
